Data as given in patent publication US11357748B2, “Methods for treating mendelian disorders of the epigenetic machinery” (THE JOHNS HOPKINS UNIVERSITY, priority 2014, dated 2022).
“Also recorded” adds a separate entry of the source.

Test system: DCX positive cells in the GCL (neurogenesis)
Assay: Doublecortin (DCX) expression in the GCL (neurogenesis) after oral AR-42
Format: in vivo, mouse
Excerpt: Kmt2d^+/βGeo mice, also named Mll2Gt^(RRt024) Byg, were acquired from Bay Genomics (University of California). All experimental mice were on a mixed C57BL/6J and 129/SvEv background. Expected Mendelian ratios were observed when heterozygous animals were bred to wild-type. In heterozygous crosses, however, there was uniform embryonic lethality of homozygotes by ED 12, the earliest developmental stage assayed. For treatment with AR-42, mice were orally gavaged daily with drug (Selleck Chemicals, Houston, Tex.) solubilized in vehicle (0.5% methylcellulose, 0.1% Tween-80, water) or with vehicle alone. Drug delivery information was kindly provided by Drs. Chen and Kulp from Ohio State University (Huang et al. (2011) Mol. Pharmacol. 79:197-20619). Drug was administered for 14 days and mice were sacrificed on day 15. Morris water maze testing was initiated at day 7 and a dose of 10 mg/kg/day was used for these studies. For quantification of DCX positive cells, doses of 0, 5, 10 and 25 mg/kg/day were used. Genotyping was performed using primers B-GeoF-([…]; SEQ ID NO: 1) and B-GeoR-([…]; SEQ ID NO: 2) that are specific for the targeted allele and TcrdF-([…]; SEQ ID NO: 3) and TcrdR-([…]; SEQ ID NO: 4) that control for sufficient DNA concentration. Real-time PCR using the same primers allows discrimination between the heterozygous and homozygous state for the targeted allele. Maxillary protrusion was evaluated by ten investigators blinded to genotype and they were asked to rate maxillary protrusion on radiographs as either large (2) or small (1). […] All experiments were performed using mouse protocols approved by the Animal Care and Use Committee of Johns Hopkins University School of Medicine. The mouse protocols used for this study are in accordance with the guidelines used by the NIH for mouse care and handling.
Every 6th brain section was selected and then blocked with 5% Bovine Serum Albumin (BSA) at room temperature followed by incubation with primary antibodies overnight at 4° C. Secondary antibodies were then applied for 1 hour at room temperature, after which sections were mounted onto microscope slides with Vectamount with DAPI (Vector Laboratories, Burlingame, Calif.). Primary antibodies included Doublecortin (DCX) (SC-8066, Santa Cruz Biotechnology, Dallas, Tex., 1:200 goat), trimethylated H3K4 (9727L, Cell Signaling Technology, Beverly, Mass., 1:500 rabbit), and Kmt2d H-300 (SC-292359, Santa Cruz Biotechnology, Dallas, Tex., 1:500 rabbit). Non-specific binding was not observed when sections were sequentially exposed to serum (or IgG when appropriate) from the same species as the primary antibody for each experiment (i.e. rabbit for KMT2D and H3K4me3 and goat for doublecortin), followed by the secondary antibody used for KMT2D and H3K4me3 (anti-rabbit) or doublecortin (anti-goat, FIG. 29).
The area of both the GCL and DCX+ cells was measured using the NS elements 2.0 software (Nikon, Tokyo, JPN). Normalized DCX area was calculated by measuring the DCX+ area of the GCL and setting the baseline (Kmt2d^+/+) fraction to 1. A Student t-test with significance value set at P<0.05 was used for comparison of DCX+ area referenced to GCL area between genotypes and treatment arms.

**Q.** How did the “DCX expression in the GCL” value (10 mg/kg/day, older (5-6 months) Kmt2d+/βGeo mice, FIG. 24D) turn out when `CC(C)[C@H](C(=O)Nc1ccc(C(=O)NO)cc1)c1ccccc1` [AR-42, (S)—N-hydroxy-4-(3-methyl-2-phenylbutanamido)benzamide] was run?
**A.** improved

**Q.** And the “difference in normalized DCX expression between mutant and wild-type animals” value (10 mg/kg/day, one to two month old mice)?
**A.** no difference between mutant and wild-type animals

**Q.** What about the “DCX expression in the GCL” value (25 mg/kg/day, Kmt2d+/+ animals, FIG. 24C) of the same compound?
**A.** reduced DCX expression

**Q.** And the “DCX expression in the GCL” value (25 mg/kg/day, Kmt2d+/βGeo mice, FIG. 24C)?
**A.** did not improve DCX expression

**Q.** What about the “DCX expression in the GCL” value (25 mg/kg/day, young (1-2 month) and old (5-6 month) Kmt2d+/+ and Kmt2d+/βGeo mice) of the same compound?
**A.** decreased DCX expression

**Q.** And the “DCX expression in the GCL” value (5 and 10 mg/kg/day, Kmt2d+/+ (preservation) or Kmt2d+/βGeo (restoration), both age groups)?
**A.** preservation or restoration of DCX expression

**Q.** And the “postnatal neurogenesis in the granule cell layer of the dentate gyrus (overall statement)” value (mouse model of KS, ages 1-2 months and 5-6 months)?
**A.** beneficial effect; also recorded: rescued postnatal neurogenesis

**Q.** And the “neurogenesis (normalized DCX expression)” value (one to two month old Kmt2d+/βGeo mice, 0-10 mg/kg/day, FIG. 25C, 25D)?
**A.** dose-dependent increase in neurogenesis
